Here are results for two molecules from US20240140947A1, “COMPOUND FOR THE TREATMENT OF CANCER” (priority 2022, published 2024).

Where two headings read alike, the source gives them in different places.

The subject of one series is MCF7 parental. In words: Cell proliferation assay (CYQUANT, 7 days), MCF7 parental. Format: cell-based. Conditions: Homo sapiens, read-out: IC50 ± SEM, proliferation inhibition. The procedure: (§1) Cellular CDK activity of Compound 1 and PF-06873600 were assessed in human CCNE1-amplified ovarian cancer cell line model OVCAR3 and human ER+ breast cancer cell line model MCF7 cells. […] OVCAR3 cells were treated overnight with 1 mM hydroxyurea to enrich for G1/S phase cells prior to treatment with inhibitors. Functional effects were measured in a 7-day anti-proliferation assay in one human ovarian cancer (OVCAR3), two human ER+ breast cancer (MCF7 and T47D) and three human non-small cell lung cancer (NCIH2087, NCIH358 and A549) cell line models.
(§2) OVCAR3, MCF7, T47D, HCC1428, NCIH2087, NCIH358 or A549cells were seeded 1-3000 cells/well in 96-well plates in growth media containing 10% FBS and cultured overnight at 37° C. 5% CO2. The following day, compounds were serially diluted from a 10 mM top dose for an 11-point 3-fold dilution curve in DMSO. […] CYQUANT Direct Cell Proliferation Assay (Molecular Probes, Eugene, OR) was then performed following manufacturer recommendations to determine the relative viable cell numbers on the Perkin Elmer Envision 2104 Multi Label Reader at 508 nm excitation and 527 nm emission wavelengths. IC50 values were calculated by concentration-response curve fitting utilizing a four-parameter analytical method using GraphPad Prism software.

The subject of a further series is MCF7 PalboR. The series can be described thus: Cell proliferation assay (CYQUANT, 7 days), MCF7 PalboR. Conditions: Homo sapiens, read-out: IC50 ± SEM, proliferation inhibition. The format is cell-based. Here is the method:
as §1
as §2, with “CO2.” for “CO2. The following day, compounds were serially diluted from a 10 mM top dose for an 11-point 3-fold dilution curve in DMSO.”
(§3) The effect of Compound 1 on cell proliferation was assessed in multiple ER+ breast cancer cell lines, including parental and palbociclib resistant cell lines.

For a further series, the system named is T47D parental. The series can be described thus: Cell proliferation assay (CYQUANT, 7 days), T47D parental. The note with it: Homo sapiens, 168 h, read-out: IC50 ± SEM, proliferation inhibition. The format is cell-based. The procedure: as §1, §2
In the next series the test system is T47D PalboR. The series can be described thus: Cell proliferation assay (CYQUANT, 7 days), T47D PalboR. The note with it: Homo sapiens, 168 h, read-out: IC50 ± SEM, proliferation inhibition. The format is cell-based. Here is the method: as §1
as §2, with “CO2.” for “CO2. The following day, compounds were serially diluted from a 10 mM top dose for an 11-point 3-fold dilution curve in DMSO.”
as §3

Another series concerns HCC1428 PalboR. In words: Cell proliferation assay (CYQUANT, 7 days), HCC1428 PalboR. Format: cell-based. Conditions: Homo sapiens, read-out: IC50 ± SEM, proliferation inhibition. The procedure: OVCAR3, MCF7, T47D, HCC1428, NCIH2087, NCIH358 or A549cells were seeded 1-3000 cells/well in 96-well plates in growth media containing 10% FBS and cultured overnight at 37° C. 5% CO2. The following day, compounds were serially diluted from a 10 mM top dose for an 11-point 3-fold dilution curve in DMSO. Compound 1 and PF-06873600 were intermediately diluted 1:200 into growth media prior to diluting 1:5 on cells for final concentration 10 μM to 0.1 nM in 0.1% DMSO on cells. Cells were incubated at 37° C. 5% CO2 for 7 days. CYQUANT Direct Cell Proliferation Assay (Molecular Probes, Eugene, OR) was then performed following manufacturer recommendations to determine the relative viable cell numbers on the Perkin Elmer Envision 2104 Multi Label Reader at 508 nm excitation and 527 nm emission wavelengths. IC50 values were calculated by concentration-response curve fitting utilizing a four-parameter analytical method using GraphPad Prism software.
as §3

The nature of series [1]: Human plasma protein binding (equilibrium dialysis). Format: in vitro ADME. Conditions: 6-hour incubation, pH 7.4, read-out: fup: human plasma unbound fraction. The procedure:
Frozen plasma in K3EDTA was purchased from BiolVT and Dulbecco's phosphate buffered saline (DPBS) and HCl were purchased from Sigma. Human plasma unbound fraction (fu r) was determined by equilibrium dialysis using an HTD 96 device (HTDialysis, LLC, Gales Ferry, CT) assembled with 12-14k MWCO membranes. Plasma was thawed and adjusted to pH 7.4 with 1 N HCl prior to use. Dialysis chambers were loaded with 150 μL plasma and 150 μL PBS in the donor and receiver chambers, respectively. The dialysis plate was sealed with a gas-permeable membrane and stored in a 37° C. water-jacked incubator maintained at 75% relative humidity and 5% CO2, on a 100 rpm plate shaker. After a 6-hour incubation, samples were matrix-matched and quench by protein precipitation, followed by LC-MS analysis. A set of satellite samples was included to measure stability after a 6-hour incubation. Incubations were conducted with 4 to 12 replicates. The fup was calculated by dividing the analyte-to-internal standard peak area ratio or analyte concentration in the buffer sample by the signal in the donor sample, corrected for any dilution factors.

The nature of series [2]: Dog i.v. pharmacokinetic study. Conditions: for Vd: dog, plasma, iv, 0.1 mg/kg, male Beagle dogs, read-out: Dog Vdss. The format is in vivo. The procedure:
Dog PK studies were done at Pfizer (Groton, CT); animal care and in vivo procedures were conducted according to guidelines from the Pfizer Institutional Animal Care and Use Committee. Male Beagle dogs were purchased from Marshall BioResources (North Rose, New York) and were typically 1-5 years of age at the time of dosing. Compounds were administered i.v. via the cephalic vein (n=2), dosed as a solution using standard compatible excipients at 0.5 mL/kg for a resulting dose of 0.1 mg/kg. Serial blood samples were collected via the jugular vein at predetermined timepoints after dosing. Animals were monitored for pain or distress throughout the study, with at least daily monitoring during normal husbandry prior to study start. Blood samples were collected into tubes containing K3EDTA and stored on ice until centrifugation to obtain plasma, which was stored frozen at −20° C. or lower. Urine samples were collected at room temperature and stored frozen at −20° C. or lower at the end of each time interval. Plasma samples from the animal PK studies were processed using protein precipitation with acetonitrile: methanol (1:1) containing internal standard verapamil followed by quantitation by LC-MS/MS against a standard curve prepared in blank plasma. Pharmacokinetic parameters were calculated using noncompartmental analysis (Watson v.7.5, Thermo Scientific).

Series [3] is described as follows: Mouse early toxicology screening (ETS) study. Format: in vivo. Conditions: for bone marrow histology: day 14, Compound 1 75 mg/kg BID, PF-06873600 150 mg/kg BID, compared with vehicle. The procedure: Three groups of ten-week-old male CD1 mice were separately evaluated in early toxicology screening studies. Group 1 (n=5/group) were administered an oral dose of 25, 50 and 75 mg/kg BID of Compound 1 for 14 days. Group 2 (n=5/group) were administered an oral dose of 25, 75 and 150 mg/kg BID of PF-06873600 for 14 days. A vehicle control Group 3 (n=5/group) were also included where vehicle was administered BID for 14 days. Study evaluations included clinical observations, body weights, clinical pathology, toxicokinetics, gross pathology and microscopic pathology.
At the end of the ETS study on day 14, mice were sacrificed and images of the mouse bone marrow from each study group (n=5) were obtained.
The systemic exposure of Compound 1 and PF-06873600 were also compared. Exposures from mouse toxicity studies were determined using plasma samples collected as timepoints on day 8 or 14 of the study and were processed using protein precipitation with solvent mixture acetonitrile:methanol (1:1) containing internal standard verapamil followed by quantitation by LC-MS/MS against a standard curve prepared in blank plasma. The free plasma concentrations were calculated using the mouse plasma protein binding for compound 1 (fup=0.182) and PF-06873600 (fup=0.277). (FIG. 3)

The term fraction unbound denotes free concentration divided by total concentration.

Regarding `C[C@@]1(O)CCC[C@H]1n1c(=O)c(CC(F)F)cc2cnc(NC3CCN(S(N)(=O)=O)CC3)nc21` [Compound 1, 4-({6-(2,2-difluoroethyl)-8-[(1R,2R)-2-hydroxy-2-methylcyclopentyl]-7-oxo-7,8-dihydropyrido[2,3-d]pyrimidin-2-yl}amino)piperidine-1-sulfonamide], the IC50 with MCF7 parental (168 h, MCF7 parental, 7 days, mean) amounted to 0.0168 ± 0.0067 µM; in the series on MCF7 PalboR (168 h, MCF7 PalboR, 7 days, mean), 0.0373 ± 0.0028 µM; with T47D parental (T47D parental, 7 days, mean) it was 0.0176 ± 0.0025 µM; in the series with T47D PalboR (T47D PalboR, 7 days, mean) it was 0.0657 ± 0.0088 µM; in the series with HCC1428 PalboR (168 h, HCC1428 PalboR, 7 days, mean), 0.0614 ± 0.0049 µM. The free fraction (fraction unbound) at 6 h in series [1] was 0.174. The “Dog Vdss unbound: (Dog Vdss/dog plasma fu)” value in series [2] was determined as 6.7 L/kg. In addition, in series [2], the Vd is 1.5 L/kg. The bone marrow histology result in series [3] was “lack of impact on the mouse bone marrow”. Besides, in series [3] (male CD1 mice, oral 25, 50 and 75 mg/kg BID for 14 days), the neutropenia result was “no neutropenia was observed”.
With `C[C@@]1(O)CCC[C@H]1n1c(=O)c(C(F)F)cc2cnc(NC3CCN(S(C)(=O)=O)CC3)nc21` [Compound 2, reference compound], the IC50 in the series on MCF7 parental (MCF7, 168 h) was 0.0386 ± 0.0102 µM; in the series with MCF7 PalboR (MCF7, 168 h), 0.111 ± 0.0561 µM; in the series on T47D parental (T47D), 0.0706 ± 0.0141 µM; in the series with T47D PalboR (T47D), 0.253 ± 0.0551 µM; in the series with HCC1428 PalboR (HCC1428, 168 h), 0.269 ± 0.0639 µM. Further, the fraction unbound at 6 h in series [1] is 0.288. In addition, the “Dog Vdss unbound: (Dog Vdss/dog plasma fu)” value in series [2] turned out to be 2.8 L/kg. In series [2], the Vd was 1.1 L/kg. The bone marrow histology result in series [3] was “vacuoles and large spaces between cells in the bone marrow image indicating cell death/apoptosis”.
